Measurements taken from patent US9096528B2, “2-aminonicotinic acid ester derivative and bactericide containing same as active ingredient” (AGRO-KANESHO CO., LTD., priority 2012, dated 2015).

Test system: Botrytis cinerea
Assay: Test on Botrytis cinerea (gray mold) of a cucumber
Format: in vivo
Details: 25 ppm; cut cucumber cotyledons inoculated with spore suspension; 20° C. for 72 hours; from lesion diameter vs non-treatment region
Protocol: A cucumber plant (a plant variety: “Sagami Han-shiro”) of 12 days after seeding was prepared for the test. Parts of cotyledons of the cucumber plant were cut out with leaving about 2 cm of its rachis. Apart from this, a plastic case with a size of 32 cm×24 cm×4.5 cm (length×width×height), at the bottom of which a paper towel sufficiently moistened with water was laid, and on the paper towel a mesh with legs was placed, was prepared. On the mesh, the above-described cut-out parts of cotyledons were placed such that leaves were horizontal. To the central part of each of the cotyledons, 50 μl of a spore suspension (1×10^6 spores/ml) of Botrytis cinerea of a cucumber was added dropwise. Thereafter, each of cotyledons was covered with a paper disc with a diameter of 6 mm. Apart from this, an emulsion prepared according to the above Preparation Example 1 was diluted with an aqueous solution of 0.02% Tween 20 in demineralized water to prepare a diluent of a predetermined concentration. 50 μl of the diluent was dropped on each paper disc. The plastic case was lidded and was placed under the condition of 20° C. for 72 hours, and then the diameter of each lesion was measured and the controlling rate for Botrytis cinerea (gray mold) of a cucumber was calculated according to the following equation. […]

CCOc1cccc(Oc2ccc(CNC(=O)c3cccnc3N)cc2)c1 [A]
Controlling rate (%): 54%
